Measurements from US9084779B2, “Conjugates of nitroimidazoles and their use as chemotherapeutic agents” (The Johns Hopkins University, priority 2011, dated 2015).
Converted amounts (≈) assume the structure as drawn.

Columns and labels:
[1] = tested on: HT29 human colorectal carcinoma cells; assay: MTT cell viability assay, 3 days; format: cell-based; settings: Homo sapiens, HT-29, 72 h, normoxic conditions, 1% DMSO
Procedure: (§1) Additional cell culture, drug treatment and cell viability assays. HT29 human colorectal carcinoma cells, 786-0 human renal adenocarcinoma cells and Hep3B human hepatocellular carcinoma cells were obtained from ATCC and maintained in culture according to their recommendations. […] After the treatment period viability of the cells was determined with the MTT cell viability assay and dose response curves were generated using the calculated values of the percentage viable cells relative to the vehicle control.

[2] = tested on: Hep3B human hepatocellular carcinoma cells; assay: MTT cell viability assay, 3 days; format: cell-based; settings: Homo sapiens, Hep3B, 72 h, normoxic conditions, 1% DMSO
Procedure: as §1

[3] = Determination of water solubility by UV absorbance of a saturated solution; format: physicochemical; settings: thermodynamic from solid; water, saturated solution, sonicated at 25° C., stirred at room temperature 1.0 h, filtered
Procedure: The aqueous solubility of all eight compounds was assessed by using a technique involving measurement of their UV absorbance^29.
Determination of Water Solubility of Compounds 7a-d and 10a-d. A saturated solution was prepared by addition of a test compound (7a-d and 10a-d; ca. 1.00 mg) to water (1.00 mL), which was sonicated at 25° C. for 5.0 min and stirring at room temperature for an additional 1.0 h. After filtration with Millipore filters (0.45-μm-pore-size polyvinylidene fluoride), the supernatant was analyzed by UV spectroscopy with concentration determined from absorbance, standardized against calibration data. Standard curves for each compound were obtained by plotting absorbance against concentration. The concentration range of the standard solutions was 1.0-10 μg/mL. For all standards, their curves were linear with γ>0.996.

[4] = tested on: Hep3B human hepatocellular carcinoma cells; assay: MTS tetrazolium cell proliferation assay, 72-h exposure; format: cell-based; settings: normoxic (21% O2), read-out: IC50 Normoxic (N)
From the text: Anti-proliferative assay. The human hepatocellular carcinoma cell line Hep3B was purchased from American Type culture Collection (ATCC, Manassas, Va.). Dulbecco's Modified Eagle Medium (DMEM) and penicillin/streptomycin (P/S) were obtained from GIBCO Invitrogen. Fetal Bovine serum (FBS) was obtained from Thermo Scientific Hyclone. Dimethyl sulfoxide (DMSO-Hybri-Max) was purchased from Sigma-Aldrich Co. and the CellTiter 96 AQueous One Solution Cell Proliferation Assay (MTS) was acquired from Promega Corp. Hep3B cells were maintained in DMEM supplemented with 10% FBS and 1× P/S solution. Cultures were incubated at 37° C. in a 5% CO2 atmosphere with 99% humidity. Stock solutions of test compounds were prepared in DMSO for use in the cell culture viability assays.
MTS tetrazolium cell proliferation assay. The viability of Hep3B cells exposed to the synthesized compounds was determined by the MTS assay. Briefly, Hep3B cells were plated in 96-well plates at a density of 3.0×10^3 cells/well and incubated for 24-h before treatment. At the initiation of treatment, the growth media was replaced with 200 μL of media containing increasing concentrations of the test compounds in triplicate wells. The final DMSO concentration in the media was 1.0% including the media added to the control wells minus the test compound. After a 72-hour incubation, 40 μL of MTS solution was added to each well and the plates were incubated for an additional 3.0 hours. The plates were then read at 490 nm on a Biotek Instruments PowerWave 200 microplate reader. For each experiment the percent growth inhibition relative to the control (no drug addition) was calculated and a dose inhibition curve was generated. The concentration of drug required to inhibit cell growth by 50% (IC50) compared to the control cells was then determined by non-linear regression using PSI-Plot software (Poly Software International).
Antiproliferative activity. The anti-cancer activities of the parent compounds 3 and 8 and the conjugated compounds 7a-d and 10a-d were tested against Hep3B human hepatocellular carcinoma cells in culture.

[5] = tested on: LNCaP human prostate cancer cells; assay: Western blot analysis of 2-nitroimidazole induced protein adducts in cell culture; format: cell-based; settings: 80 μM, 6 hours normoxic then 6 hours hypoxic or normoxic
Procedure: Western blot analysis of 2-nitroimidazole induced protein adducts in LNCaP cell cultures. Exponentially growing LNCaP human prostate cancer cells were treated with DMSO, 80 μM M3N-PEG-2NI or Hypoxyprobe-1 in standard media for 6 hours under normoxic conditions and then under hypoxic or normoxic conditions for additional 6 hours. Afterward the media was aspirated, the cells washed and ice cold RIPA lysis buffer was added and the cells lysed on ice for 15 minutes. The samples were centrifuged and the lysate collected. Cellular proteins in the extracts were analyzed for the presence of protein adducts using standard western blotting technique. The primary antibody was PAb2627 polyclonal antibody (1:200) directed against Hydroxyprobe-1 protein adducts. The secondary antibody was Anti-Rabbit HRP conjugate (1:2000). Detection was by chemiluminescence

IC50 [1]: 4 to 6 µM
IC50 [2]: 4 µM
solubility at 1 h [3]: 13.2 µg/mL (≈ 21.5 µM)
IC50 [4]: 12.6 ± 4.9 µM
Compound: COc1ccc(C[C@H](C)[C@H](C)Cc2ccc(OC)c(OCCOCCOCCOCCn3ccnc3[N+](=O)[O-])c2)cc1OC (racemic) [Compound 7d, (±)-(2R,3S)-4-(3,4-Dimethoxyphenyl)-1-[4-methoxy-3-[12-(2-nitro-1H-imidazol-1-yl)-1,4,7,10-tetraoxadodecanyl]phenyl]-2,3-dimethylbutane]
Protein adducts by western blot (PAb2627 antibody) [5]: showed evidence of protein adducts
